Test results as given in US10144736B2 (Gilead Sciences, Inc., priority 2006, dated 2018).
pEC50: −log10 of the molar value. Read-outs that look alike come from different tables or passages of the source.

Columns and labels:
[1] = system: HCV replicon; assay: Anti-HCV replicon assay (EC50, luciferase readout); format: cell-based, hepatitis C virus; details: human hepatoma Huh-7 cell line harbouring a HCV replicon, 3 days incubation, luciferase signal
Procedure: (§1) The anti HCV activity of specifically substituted pteridine derivatives was tested in a human hepatoma Huh-7 cell line harbouring a HCV replicon. The assay comprised the following steps:
(§2) Step 1: compound preparation and serial dilution involved the following alternatives, depending upon the water solubility of pteridine derivative being tested:
(§3) • 1. with respect to water soluble pteridine derivatives, 500 μL of solution in cell media (DMEM, 10% FBS, P/S, L-Glutamine) was prepared with a concentration that is twice the concentration of the starting final serial dilution concentration. 150 μL of the solution was added to the pre-specified wells in column 1 of a 96-well cell culture plate (PerkinElmer, white plate, cat. #6005181, for EC50 assay; black plate, cat. #6005182 for CC50 assay). The rest of the plate, i.e. columns 2-12, was filled with 100 μL of cell media. The plate was then placed on a Precision 2000 Workstation in order to start serial dilution. Pteridine compounds were diluted three times each step from column 1 to column 10. Column 11 was used as a blank control (no pteridine compound added). • 2. With respect to poorly water soluble pteridine derivatives, DMSO was used as a solvent, and serial dilution was performed in 50% DMSO in water, in a 384-well plate. A solution containing the relevant compound at 100-fold the concentration of the starting final serial dilution concentration was prepared in 50% DMSO in water and added to the pre-specified wells in column 1 of a polypropylene 384-well plate. This plate was then placed on a Precision 2000 Workstation in order to start serial dilution. After serial dilution, 2 μL of the solution was transferred from the 384-well plate to a 96-well cell culture plate containing 100 μL of cell media on a Biomek FX Workstation. The DMSO concentration in the final assay condition was 0.5% after cells have been added to the plate and the total volume in each well was brought to 200 μL. Step 2: to each well of the serial dilution plate prepared in step 1, 100 μL of cell media containing 6000 suspended Huh-7 HCV replicon cells was added with a Multidrop workstation. Plates were incubated for 3 days at 37° C. with 5% CO2. Step 3: detection: • 1) with respect to the EC50 assay, the media in a 96-well cell culture plate was aspirated with a Biotek EL405 plate-washer. A volume of 200 μL of a solution containing a 1:1 mixture of a cell-lysis buffer (commercially available from Promega, Luciferase Cell Culture Lysis 5X Reagent, cat. #E1531) and a luciferase substrate solution (commercially available from Promega, Luciferase Assay, cat. #E4550) was added to each well of the plate with Multidrop. The plate was incubated for 30 minutes at room temperature before the luminescence signal was measured with a TopCount plate-reader. • 2) with respect to the CC50 assay, 100 μL of a pre-mixed CellTiter-Glo (commercially available from Promega, cat. #G7572) solution was added directly to the cell culture in each well of the plate and the luminescence signal was measured with a TopCount plate-reader after 10 minutes of incubation at room temperature.
(§4) Results are expressed by the following data: • the 50% effective concentration (EC50), i.e. the concentration that protects 50% of the cell monolayer from virus-induced cythopathic effect. • the 50% cytostatic concentration (CC50), i.e. the concentration that results in 50% inhibition of cell growth.

[2] = system: Huh-7 HCV replicon cells; assay: CC50 assay (CellTiter-Glo) in Huh-7 HCV replicon cells; format: cell-based, human; details: 3 days incubation, 50% cytostatic concentration
Procedure: as §1, §2, §3, §4

[3] = as above; format: cell-based, human; details: human, 3 days incubation, 50% cytostatic concentration
Procedure: as §1, §2, §3, §4

[4] = Hepatitis C virus, 72 h, read-out: EC50

For Nc1nc(N2CCOCC2)c2nc(-c3cccc(F)c3F)cnc2n1 [Example 113, 6-(2,3-difluorophenyl)-4-morpholino-pteridin-2-ylamine], the pEC50 [1] was 5.00 to 6.00 and the CC50 [2] was > 20 µM.
Compound Nc1nc(N2CCOCC2)c2nc(-c3ccc(OC(F)(F)F)cc3)cnc2n1 [Example 86] has a pEC50 ([1]; read-out: EC50) of 6.00 to 6.52 and a CC50 [2] of 10 to 20 µM.
With Nc1nc(N2CCOCC2)c2nc(-c3ccc(NC(=O)C4CC4)cc3)cnc2n1 [Example 142, Cyclopropane carboxylic acid[4-(2-amino-4-morpholin-4-yl-pteridin-6-yl)-phenyl]-amide] the pEC50 ([1]; read-out: EC50) was 6.00 to 6.52 and the CC50 [2] was < 10 µM.
For CCOc1nc(N)nc2ncc(-c3ccc(N)cc3)nc12 [Example 69, 6-(4-aminophenyl)-4-ethoxypteridin-2-ylamine], the pEC50 ([1]; Hepatitis C virus, Huh-7, 72 h) was 5.00 to 6.00 and the CC50 at 3 days [3] was > 20 µM.
Work on CCOc1cccc(-c2cnc3nc(N)nc(N4CCOCC4)c3n2)c1 [Example 126, 6-(3-ethoxyphenyl)-4-morpholinopteridin-2-ylamine] yielded a pEC50 [1, 4] of 5.00 to 6.00 and a CC50 at 3 days [3] of 10 to 20 µM.
In the case of Nc1nc(N2CCOCC2)c2nc(-c3cccc(Cl)c3Cl)cnc2n1 [Example 91, 6-(2,3-dichlorophenyl)-4-morpholinopteridin-2-amine], the pEC50 ([1]; Hepatitis C virus, Huh-7, 72 h) was 6.00 to 6.52 and the CC50 at 3 days [3] was > 20 µM.
Nc1nc(N2CCOCC2)c2nc(-c3ccc(F)cc3Cl)cnc2n1 [Example 92, 6-(2-chloro-4-fluorophenyl)-4-morpholinopteridin-2-ylamine] gave a pEC50 ([1]; Hepatitis C virus, Huh-7, 72 h) of 6.00 to 6.52 and a CC50 at 3 days [3] of 10 to 20 µM.
With Nc1nc(N2CCOCC2)c2nc(-c3ccn[nH]3)cnc2n1 [Example 112, 4-morpholino-6-(1H-pyrazol-5-yl)pteridin-2-ylamine] the pEC50 [1, 4] was 5.00 to 6.00 and the CC50 at 3 days [3] was > 20 µM.
For COc1ccc(-c2cnc3nc(N)nc(N4CCOCC4)c3n2)cn1 [Example 130, 6-(6-methoxypyridin-3-yl)-4-morpholinopteridin-2-ylamine], the pEC50 [1, 4] was 5.00 to 6.00 and the CC50 at 3 days [3] was > 20 µM.
In the case of Nc1nc(N2CCOCC2)c2nc(-c3ccc(CN4CCOCC4)cc3)cnc2n1 [Example 89, 4-morpholino-6-(4-(morpholino-methyl)phenyl)pteridin-2-ylamine], the pEC50 [1, 4] was 5.00 to 6.00 and the CC50 at 3 days [3] was > 20 µM.
With Nc1nc(N2CCOCC2)c2nc(-c3ccc(NC(=O)[C@@H](N)CO)cc3)cnc2n1 [Example 144, (S)-2-amino-N-(4-(2-amino-4-morpholinopteridin-6-yl)phenyl)-3-hydroxypropanamide] the pEC50 [1, 4] was 5.00 to 6.00 and the CC50 at 3 days [3] was > 20 µM.
In the case of Nc1nc(N2CCOCC2)c2nc(-c3ccc(C(F)(F)F)cc3Cl)cnc2n1 [Example 121, 6-(2-chloro-4-(trifluoromethyl)phenyl)-4-morpholinopteridin-2-ylamine], the pEC50 [1, 4] was 5.00 to 6.00 and the CC50 at 3 days [3] was 10 to 20 µM.
In the case of Nc1nc(N2CCOCC2)c2nc(-c3ccc(Cl)s3)cnc2n1 [Example 127], the pEC50 ([1]; Hepatitis C virus, Huh-7, in Homo sapiens, 72 h) was 6.00 to 6.52 and the CC50 at 3 days [3] was < 10 µM.
In the case of CC(C)(O)CCOc1nc(N)nc2ncc(-c3ccc(F)cc3)nc12 [Example 154, 4-[2-Amino-6-(4-fluorophenyl)-pteridin-4-yloxy]-2-methyl-butan-2-ol], the pEC50 ([1]; Hepatitis C virus, Huh-7, 72 h) was 5.00 to 6.00 and the CC50 at 3 days [3] was > 20 µM.
